What all share (experiment): SelectScreen Z-LYTE kinase activity assay (SI Table 6)
Common to all, as to type: biochemical

Assay [1] concerns the target T1, protein kinases of the Z-LYTE panel (Homo sapiens, UniProt P52333).
T1 sequence (P52333 1-1124): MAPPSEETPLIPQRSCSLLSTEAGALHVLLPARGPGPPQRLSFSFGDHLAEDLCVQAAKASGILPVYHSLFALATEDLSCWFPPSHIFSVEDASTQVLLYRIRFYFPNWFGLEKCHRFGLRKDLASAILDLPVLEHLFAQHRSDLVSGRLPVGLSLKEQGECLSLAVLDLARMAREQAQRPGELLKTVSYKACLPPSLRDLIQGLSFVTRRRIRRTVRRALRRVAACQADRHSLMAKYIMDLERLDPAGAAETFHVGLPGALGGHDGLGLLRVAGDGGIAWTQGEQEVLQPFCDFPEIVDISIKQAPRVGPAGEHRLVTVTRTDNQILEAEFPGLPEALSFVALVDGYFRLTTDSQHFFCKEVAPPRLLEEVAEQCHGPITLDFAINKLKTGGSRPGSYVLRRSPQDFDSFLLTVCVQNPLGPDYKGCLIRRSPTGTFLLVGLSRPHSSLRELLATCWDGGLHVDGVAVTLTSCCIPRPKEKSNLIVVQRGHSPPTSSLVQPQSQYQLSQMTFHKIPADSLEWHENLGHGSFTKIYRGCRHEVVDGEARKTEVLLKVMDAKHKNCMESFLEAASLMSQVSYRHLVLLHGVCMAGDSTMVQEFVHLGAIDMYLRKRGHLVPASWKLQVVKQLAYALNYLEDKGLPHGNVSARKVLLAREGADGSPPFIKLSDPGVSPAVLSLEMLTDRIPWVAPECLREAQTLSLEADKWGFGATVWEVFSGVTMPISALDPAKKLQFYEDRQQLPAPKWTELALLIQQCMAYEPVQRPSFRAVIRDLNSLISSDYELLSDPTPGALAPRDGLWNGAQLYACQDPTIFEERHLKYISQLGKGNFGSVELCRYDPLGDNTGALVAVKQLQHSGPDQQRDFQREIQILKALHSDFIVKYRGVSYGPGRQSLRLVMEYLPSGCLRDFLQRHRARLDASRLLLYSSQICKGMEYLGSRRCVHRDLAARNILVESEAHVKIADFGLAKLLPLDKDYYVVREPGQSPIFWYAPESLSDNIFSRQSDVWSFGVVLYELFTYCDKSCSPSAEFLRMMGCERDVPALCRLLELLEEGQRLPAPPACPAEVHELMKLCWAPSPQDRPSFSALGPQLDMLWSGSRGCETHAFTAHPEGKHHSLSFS
A digest of the protocol:
(§1)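 Percent effect values derive from SelectScreen Adapta, Lantha and Z-LYTE assays in which 1938 was present at 1 μM, spanning 133 protein kinases and 7 lipid kinases.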

The target of assay [2] is protein kinases of the Z-LYTE panel (Homo sapiens, UniProt P22455). The essentials:
as §1

Assay [3] concerns the target protein kinases of the Z-LYTE panel (Homo sapiens, UniProt P49759). The essentials:
as §1

Structures are written as SMILES. Read-outs that look alike come from different tables or passages of the source.

protein kinases of the Z-LYTE panel (Homo sapiens, UniProt P49759), sequence (P49759 whole entry): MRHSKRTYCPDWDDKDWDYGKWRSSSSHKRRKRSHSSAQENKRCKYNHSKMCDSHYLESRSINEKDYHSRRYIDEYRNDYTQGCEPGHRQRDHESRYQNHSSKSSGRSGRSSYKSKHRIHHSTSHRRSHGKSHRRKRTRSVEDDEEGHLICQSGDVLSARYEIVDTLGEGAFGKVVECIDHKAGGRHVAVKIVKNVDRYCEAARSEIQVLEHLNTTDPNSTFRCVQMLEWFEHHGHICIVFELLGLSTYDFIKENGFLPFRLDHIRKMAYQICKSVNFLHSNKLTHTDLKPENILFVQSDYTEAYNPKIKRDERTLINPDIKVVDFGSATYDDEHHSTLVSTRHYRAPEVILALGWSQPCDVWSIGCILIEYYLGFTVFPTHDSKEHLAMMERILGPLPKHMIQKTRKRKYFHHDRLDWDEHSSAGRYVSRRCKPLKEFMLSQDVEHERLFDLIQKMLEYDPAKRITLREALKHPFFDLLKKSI
protein kinases of the Z-LYTE panel (Homo sapiens, UniProt P22455), sequence (P22455 22-802): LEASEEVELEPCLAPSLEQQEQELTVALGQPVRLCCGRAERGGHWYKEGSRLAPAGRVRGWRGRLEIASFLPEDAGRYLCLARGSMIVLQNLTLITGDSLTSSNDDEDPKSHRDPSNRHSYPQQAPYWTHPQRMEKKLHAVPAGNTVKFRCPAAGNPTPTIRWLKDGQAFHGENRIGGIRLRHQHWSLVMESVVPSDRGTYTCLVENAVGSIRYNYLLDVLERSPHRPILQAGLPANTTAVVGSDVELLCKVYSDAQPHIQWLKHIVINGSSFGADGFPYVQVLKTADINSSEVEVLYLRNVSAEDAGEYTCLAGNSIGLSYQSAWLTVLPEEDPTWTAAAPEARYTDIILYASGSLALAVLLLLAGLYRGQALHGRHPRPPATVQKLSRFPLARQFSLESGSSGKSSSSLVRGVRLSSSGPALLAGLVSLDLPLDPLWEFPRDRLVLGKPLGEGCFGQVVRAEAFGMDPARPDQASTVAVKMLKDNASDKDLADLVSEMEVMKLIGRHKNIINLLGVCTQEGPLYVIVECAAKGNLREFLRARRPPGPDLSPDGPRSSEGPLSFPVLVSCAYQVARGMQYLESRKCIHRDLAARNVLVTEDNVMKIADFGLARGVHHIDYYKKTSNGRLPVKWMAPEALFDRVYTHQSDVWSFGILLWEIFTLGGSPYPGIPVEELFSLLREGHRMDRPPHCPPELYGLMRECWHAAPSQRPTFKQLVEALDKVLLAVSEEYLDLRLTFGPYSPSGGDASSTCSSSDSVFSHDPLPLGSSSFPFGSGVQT

As usually defined, the inhibition is the relative decrease from the control value, in per cent. Regarding `CCN1CCN(c2ccc(Nc3cc(Nc4cccc5c4N(C(C)=O)CC5)ccn3)cc2)CC1` [Compound 1938], the inhibition at 1 µM in assay [1] (read-out: % Inhibition Point 1) stood at 3%; in assay [1] (read-out: % Inhibition Point 2), 1.12%; in assay [1] (read-out: % Inhibition mean) it was 2%; in assay [2] (read-out: % Inhibition Point 1), 8.55%; in assay [2] (read-out: % Inhibition Point 2) it was 8%; in assay [2] (read-out: % Inhibition mean), 8%. In addition, the inhibition at 1 µM in assay [3] (read-out: % Inhibition Point 1) worked out at 2.18%; in assay [3] (read-out: % Inhibition Point 2), 6%; in assay [3] (read-out: % Inhibition mean), 4%.

The values are drawn from paper PMC7614683, “A small molecule PI3Kα activator for cardioprotection and neuroregeneration” (Nature, 2023).
